Test results taken from US20240391931A1 (Bristol-Myers Squibb Company, priority 2021, published 2024).

How the values were obtained:
HER2YVMA = HER2YVMA (Homo sapiens, UniProt P04626, INS775YVMA); assay: HER2 signaling (pHER2) in BEAS2B-HER2YVMA cells; format: cell-based; design: expressed in transfected cells; host or cells: HEK293 (pool), Ba/F3 (clones), BEAS2B (clones); lentiviral vector pCDH-CMV-MCS-EF1-Neo; conditions: read-out: BEAS2B YVMA pHER2 EC50
Method: Cell culture, plasmid cloning, and lentiviral transduction were carried out according to standard procedures. The Human HER2 cDNA construct in pCMV6-Entry for the HER2 wildtype (WT) expression was obtained from Origene. The HER2 cDNA including the 12-nucleotide insertion corresponding to YVMA insertion (HER2YVMA) was codon optimized, synthesized and cloned by GenScript (Piscataway, NJ) in pcDNA3.1. The lentiviral constructs expressing HER2YVMA and HER2 WT were sub-cloned using PCR at System Biosciences (SBI, Mountainview, CA) into lentiviral vectors pCDH-CMV-MCS-EF1-Neo and lentiviral particles were generated.
Engineered lines expressing HER2YVMA and HER2 WT were prepared in HEK293 (human embryonic kidney cells), Ba/F3 (Interleukin 3 (IL3)-dependent murine pro B cell line), and BEAS2B (primary immortalized human bronchial epithelial cell line). […]
HER2 signaling was assessed in BT474 and N87 cell lines which endogenously overexpress the HER2 wildtype (WT) protein, in NCI-H1781 cells which endogenously expresses a HER2 mutant protein containing a VC insertion in the kinase domain (HER2VC or G776delinsVC), and in engineered cell lines transduced to express the Her2 mutant protein containing the YVMA insertion (Hek293-HER2YVMA and BEAS2B-HER2YVMA). […]
HER2 signaling was evaluated using phospho (Tyr1248)/total ErbB2 whole cell lysate MSD plates (Meso-Scale Discovery, Gaithersburg, MD). […]

HER2 = biological target: T1, HER2 (Homo sapiens, UniProt P04626); assay: HER2 occupancy assay in BT474 cells; format: cell-based; conditions: concentration at which 50% of HER2 is irreversible bound, read-out: BT474 HER2 Occ
T1 construct: BT474 and N87 cell lines which endogenously overexpress the HER2 wildtype (WT) protein; endogenous in cells; host or cells: BT474, N87
Method: In order to assess free HER2 protein, a biotinylated probe was utilized. BT474, N87, and Ba/F3-HER2YVMA cells were treated with test compound as described for HER2 signaling. After compound treatment, cells were washed three times with cold phosphate buffer saline (PBS, Life Technologies, Carlsbad, CA), and lysed in modified occupancy lysis buffer prepared with an irreversible biotinylated tool compound (1 μM) in 25 mM Tris pH 7.5, 150 mM NaCl, 1% Triton, and supplemented with cOmplete, EDTA-free Protease inhibitor cocktail (Roche), Phosphatase Inhibitor Cocktails 2 and 3 (Sigma-Aldrich), and 1 mM PMSF (Sigma-Aldrich).
To determine % occupancy, lysates were loaded into duplicate plates of the phospho (Tyr1248)/total ErbB2 whole cell lysate MSD kit (Meso-Scale Discovery) and incubated overnight. Plates were washed and incubation with either HER2-sulfoTag (1:50, Meso Scale Discovery) or Strep-Sulfo Tag (1:1000, Meso Scale Discovery), for detection of […]. A standard curve of untreated cells in serial dilution was included in each plate to independently fit streptavidin (Free HER2) and total HER2 MSD signals; non-specific signal (BSA control spots) was subtracted from each well. Free HER2 was then normalized by total HER2 for each sample. The results are reported as % DMSO control. The normalized data was fitted using a sigmoidal curve analysis program (Graph Pad Prism version 6) with variable Hill slope to determine EC50 values. The results are provided in Table 4, under columns titled “BT474-HER2 Occ”, “N87-HER2 Occ”, and “Ba/F3 YVMA-HER2 Occ”. HER2 Occ is the concentration of test compound at which 50% of HER2 is irreversible bound.

T1 sequence (P04626 23-1255): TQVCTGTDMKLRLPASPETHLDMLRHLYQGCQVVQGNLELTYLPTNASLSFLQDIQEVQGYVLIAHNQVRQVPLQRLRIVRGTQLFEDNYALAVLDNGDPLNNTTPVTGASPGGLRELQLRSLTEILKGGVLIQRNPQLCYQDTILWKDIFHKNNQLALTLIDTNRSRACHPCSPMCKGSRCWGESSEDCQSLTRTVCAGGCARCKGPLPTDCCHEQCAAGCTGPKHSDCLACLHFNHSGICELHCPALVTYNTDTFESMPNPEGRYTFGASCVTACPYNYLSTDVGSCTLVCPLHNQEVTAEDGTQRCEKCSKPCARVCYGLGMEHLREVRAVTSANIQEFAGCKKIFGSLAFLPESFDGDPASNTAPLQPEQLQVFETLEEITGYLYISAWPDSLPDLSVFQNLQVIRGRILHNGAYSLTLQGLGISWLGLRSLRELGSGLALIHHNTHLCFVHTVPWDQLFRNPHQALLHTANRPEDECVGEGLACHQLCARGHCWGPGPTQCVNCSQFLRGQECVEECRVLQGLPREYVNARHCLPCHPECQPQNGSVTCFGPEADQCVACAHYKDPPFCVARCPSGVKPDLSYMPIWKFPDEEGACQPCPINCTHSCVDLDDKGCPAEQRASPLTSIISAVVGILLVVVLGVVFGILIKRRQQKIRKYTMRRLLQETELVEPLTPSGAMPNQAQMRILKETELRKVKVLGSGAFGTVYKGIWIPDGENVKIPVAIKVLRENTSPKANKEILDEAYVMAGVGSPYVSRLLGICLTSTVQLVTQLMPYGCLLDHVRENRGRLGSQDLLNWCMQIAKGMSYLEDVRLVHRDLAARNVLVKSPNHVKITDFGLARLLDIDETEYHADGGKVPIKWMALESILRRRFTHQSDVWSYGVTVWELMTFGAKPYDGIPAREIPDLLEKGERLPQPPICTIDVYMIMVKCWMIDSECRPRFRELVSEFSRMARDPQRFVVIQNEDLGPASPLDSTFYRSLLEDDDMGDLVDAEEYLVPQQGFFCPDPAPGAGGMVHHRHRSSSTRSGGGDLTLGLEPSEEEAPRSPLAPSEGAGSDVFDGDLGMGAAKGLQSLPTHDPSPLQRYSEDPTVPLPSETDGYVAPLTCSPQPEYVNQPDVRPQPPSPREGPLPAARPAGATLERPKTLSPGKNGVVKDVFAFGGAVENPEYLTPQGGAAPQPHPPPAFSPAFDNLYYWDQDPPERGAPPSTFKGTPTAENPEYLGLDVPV
Sequence of HER2YVMA (P04626 with tags, fused parts or gaps INS775YVMA): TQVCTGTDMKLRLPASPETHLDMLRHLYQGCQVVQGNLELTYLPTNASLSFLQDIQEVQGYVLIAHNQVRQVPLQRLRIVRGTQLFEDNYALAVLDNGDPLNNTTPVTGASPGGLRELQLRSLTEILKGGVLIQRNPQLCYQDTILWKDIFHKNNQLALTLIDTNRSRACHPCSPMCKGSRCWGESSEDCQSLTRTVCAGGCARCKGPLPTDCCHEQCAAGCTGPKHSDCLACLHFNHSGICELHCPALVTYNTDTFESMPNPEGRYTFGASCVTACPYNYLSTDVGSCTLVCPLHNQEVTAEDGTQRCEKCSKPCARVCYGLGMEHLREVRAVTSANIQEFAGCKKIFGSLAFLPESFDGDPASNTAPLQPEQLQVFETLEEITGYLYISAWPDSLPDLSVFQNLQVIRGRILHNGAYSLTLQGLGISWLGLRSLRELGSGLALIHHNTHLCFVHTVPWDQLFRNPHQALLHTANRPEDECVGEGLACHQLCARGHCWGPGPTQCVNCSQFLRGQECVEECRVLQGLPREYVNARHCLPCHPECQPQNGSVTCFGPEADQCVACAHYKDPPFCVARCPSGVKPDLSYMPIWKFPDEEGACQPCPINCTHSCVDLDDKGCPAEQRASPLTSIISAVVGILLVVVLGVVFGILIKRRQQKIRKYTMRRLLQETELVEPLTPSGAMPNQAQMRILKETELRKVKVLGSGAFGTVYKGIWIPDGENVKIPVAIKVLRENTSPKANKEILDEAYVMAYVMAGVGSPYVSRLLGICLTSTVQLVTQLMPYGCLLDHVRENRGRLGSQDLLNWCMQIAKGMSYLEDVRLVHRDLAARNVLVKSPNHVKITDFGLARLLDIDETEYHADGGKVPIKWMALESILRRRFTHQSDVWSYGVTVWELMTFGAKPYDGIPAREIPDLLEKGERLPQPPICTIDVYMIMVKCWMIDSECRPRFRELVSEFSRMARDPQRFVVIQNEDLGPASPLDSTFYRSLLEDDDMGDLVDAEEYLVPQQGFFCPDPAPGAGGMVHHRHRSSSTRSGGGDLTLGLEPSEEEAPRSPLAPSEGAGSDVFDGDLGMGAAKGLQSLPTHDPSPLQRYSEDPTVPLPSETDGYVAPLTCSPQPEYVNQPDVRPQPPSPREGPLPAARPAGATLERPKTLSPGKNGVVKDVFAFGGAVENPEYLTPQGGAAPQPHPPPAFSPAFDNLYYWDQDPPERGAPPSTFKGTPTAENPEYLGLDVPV

SMILES	EC50 (HER2YVMA)	EC50 (HER2)
Cc1ccc(Oc2ccc(Nc3ncnc4sc5c(c34)CCN(C(=O)/C=C/CN(C)C)C5)cc2C)cn1 [Compound 8, (E)-4-(Dimethylamino)-1-(4-((3-methyl-4-((6-methylpyridin-3-yl)oxy)phenyl)amino)-5,6-dihydropyrido[4′,3′:4,5]thieno[2,3-d]pyrimidin-7(8H)-yl)but-2-en-1-one]	< 100 nM	< 100 nM
Cc1cc(Nc2ncnc3sc4c(c23)CCN(C(=O)/C=C/CN2CCOCC2)C4)ccc1Oc1ccc2ncnn2c1 [Compound 12]		< 100 nM
